Values joined by “and” are separate entries in the source; they are usually repeats but may differ in a detail not shown here. Equal entries are not always repeated. Inconclusive results and toxic doses are left out. Rule for the calls: active = survival T/C of 150% or more; inactive = T/C below 125% in these data.
Tested on: CD2F1 mice, L1210 leukemia ip, survival T/C
Assay: NCI In Vivo Anticancer Drug Screen. Data for tumor model L1210 Leukemia (intraperitoneal) in CD2F1 (CDF1) mice
Conditions: endpoint: mean survival time, higher = longer survival
In short: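 Activity against a transplanted murine tumor was judged by comparing the compound group with a vehicle group. The outcome in the treated animals was divided by that in the controls.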

[1] = dose: 100.0 mg/kg/injection, schedule: Q01DX001 (ip), vehicle: saline with Tween-80
[2] = dose: 200.0 mg/kg/injection, schedule: Q01DX001 (ip), vehicle: saline with Tween-80
[3] = dose: 400.0 mg/kg/injection, schedule: Q01DX001 (ip), vehicle: saline with Tween-80
[4] = dose: 25.0 mg/kg/injection, schedule: Q04DX003 (ip), vehicle: saline
[5] = dose: 50.0 mg/kg/injection, schedule: Q04DX003 (ip), vehicle: saline
[6] = dose: 100.0 mg/kg/injection, schedule: Q04DX003 (ip), vehicle: saline
[7] = dose: 100.0 mg/kg/injection, schedule: Q04DX003 (ip), vehicle: saline with Tween-80
[8] = dose: 200.0 mg/kg/injection, schedule: Q04DX003 (ip), vehicle: saline with Tween-80
[9] = dose: 400.0 mg/kg/injection, schedule: Q04DX003 (ip), vehicle: saline with Tween-80
[10] = dose: 100.0 mg/kg/injection, schedule: Q01DX009 (ip), vehicle: saline with Tween-80
[11] = dose: 200.0 mg/kg/injection, schedule: Q01DX009 (ip), vehicle: saline with Tween-80
[12] = dose: 400.0 mg/kg/injection, schedule: Q01DX009 (ip), vehicle: saline with Tween-80
[13] = dose: 100.0 mg/kg/injection, schedule: Q04DX002 (ip), vehicle: saline with Tween-80
[14] = dose: 200.0 mg/kg/injection, schedule: Q04DX002 (ip), vehicle: saline with Tween-80
[15] = dose: 400.0 mg/kg/injection, schedule: Q04DX002 (ip), vehicle: saline with Tween-80
[16] = dose: 25.0 mg/kg/injection, schedule: Q04DX002 (ip), vehicle: saline with Tween-80
[17] = dose: 50.0 mg/kg/injection, schedule: Q04DX002 (ip), vehicle: saline with Tween-80

Measured: T/C

COc1cccc2c1C(=O)c1c(O)c3c(c(O)c1C2=O)C[C@@](O)(/C(C)=N/NC(=O)c1ccc(-c2ccccc2)cc1)C[C@@H]3OC1CC(N)C(O)C(C)O1 (stereo partly specified)
inactive: dose: 0.06 mg/kg/injection, schedule: Q01DX009 (ip), vehicle: water 104 % of control | dose: 0.13 mg/kg/injection, schedule: Q01DX009 (ip), vehicle: water 103 % of control | dose: 0.25 mg/kg/injection, schedule: Q01DX009 (ip), vehicle: water 114 % of control | dose: 0.5 mg/kg/injection, schedule: Q01DX009 (ip), vehicle: water 117 % of control | dose: 1.0 mg/kg/injection, schedule: Q01DX009 (ip), vehicle: water 115 % of control | dose: 2.0 mg/kg/injection, schedule: Q01DX009 (ip), vehicle: water 122 % of control | dose: 4.0 mg/kg/injection, schedule: Q01DX009 (ip), vehicle: water 111 % of control | dose: 8.0 mg/kg/injection, schedule: Q01DX009 (ip), vehicle: water 117 % of control | dose: 16.0 mg/kg/injection, schedule: Q01DX009 (ip), vehicle: water 88 % of control

Cc1ccc(C(=S)NC(=O)Nc2ccccc2)cc1
inactive: [1] 97 % of control | [2] 94 % of control | [3] 97 % of control

CCN(CC)CCN1C(=O)c2cccc3cccc(c23)C1=O
inactive: [4] 102 % of control | [5] 98 % of control | [6] 102 % of control

O=C(Nc1cccc2ccccc12)[C@H]1C[C@H]2C=C[C@@H]1C2
inactive: dose: 37.5 mg/kg/injection, schedule: Q01DX009 (ip), vehicle: saline with Tween-80 101 % of control | dose: 75.0 mg/kg/injection, schedule: Q01DX009 (ip), vehicle: saline with Tween-80 95 % of control | dose: 150.0 mg/kg/injection, schedule: Q01DX009 (ip), vehicle: saline with Tween-80 95 % of control | dose: 300.0 mg/kg/injection, schedule: Q01DX009 (ip), vehicle: saline with Tween-80 97 % of control

BrC=C=C1CCCCC1
inactive: [7] 95 % of control | [8] 93 % of control | [9] 97 % of control

Cc1c(Cl)cc(Cl)c(N)c1Cl
inactive: [10] 93 % of control | [11] 97 % of control | [12] 97 % of control

CC(=O)Nc1nc(Br)c2ccccc2c1-c1ccc(N(CCOS(=O)(=O)c2ccc(C)cc2)CCOS(=O)(=O)c2ccc(C)cc2)cc1
inactive: dose: 12.5 mg/kg/injection, schedule: Q04DX003 (ip), vehicle: DMSO 98 % of control | dose: 25.0 mg/kg/injection, schedule: Q04DX003 (ip), vehicle: DMSO 102 % of control | dose: 50.0 mg/kg/injection, schedule: Q04DX003 (ip), vehicle: DMSO 102 % of control | dose: 100.0 mg/kg/injection, schedule: Q04DX003 (ip), vehicle: DMSO 105 % of control

C=C(C)C12OC3(c4ccccc4)OC1C1C4OC4(CO)C(O)C4(O)C(=O)C(C)=CC4C1(O3)C(C)C2OC(=O)c1ccccc1 (stereo unspecified)
inactive: dose: 0.1 mg/kg/injection, schedule: Q01DX009 (ip), vehicle: saline 96 % of control | dose: 0.2 mg/kg/injection, schedule: Q01DX009 (ip), vehicle: saline 98 % of control | dose: 0.4 mg/kg/injection, schedule: Q01DX009 (ip), vehicle: saline 98 % of control | dose: 0.8 mg/kg/injection, schedule: Q01DX009 (ip), vehicle: saline 100 % of control

Cc1cc(CSc2ssc(=S)c2-c2ccccc2)c(CSc2ssc(=S)c2-c2ccccc2)cc1C
inactive: [1] 98 % of control | [2] 98 % of control | [3] 97 % of control

C(=C(\c1ccccc1)N1CCOCC1)/c1ccccc1
inactive: dose: 100.0 mg/kg/injection, schedule: Q01DX001 (ip), vehicle: saline sonified 111 % of control | [13] 93 % of control | dose: 200.0 mg/kg/injection, schedule: Q01DX001 (ip), vehicle: saline sonified 104 % of control | [14] 96 % of control | dose: 400.0 mg/kg/injection, schedule: Q01DX001 (ip), vehicle: saline sonified 102 % of control | [15] 96 % of control

NC(N)=NC(N)=Nc1ccc(Cl)c(Cl)c1
inactive: dose: 50.0 mg/kg/injection, schedule: Q01DX001 (ip), vehicle: Klucel (hydroxypropylcellulose) (HPC) 94 % of control | dose: 100.0 mg/kg/injection, schedule: Q01DX001 (ip), vehicle: Klucel (hydroxypropylcellulose) (HPC) 105 % of control | dose: 150.0 mg/kg/injection, schedule: Q01DX009 (ip), vehicle: saline 108 % of control | dose: 200.0 mg/kg/injection, schedule: Q01DX001 (ip), vehicle: Klucel (hydroxypropylcellulose) (HPC) 94 % of control

Cc1c2ccncc2c(C)c2c1[nH]c1ccc(O)cc12
active: dose: 50.0 mg/kg/injection, schedule: Q04DX003 (ip), vehicle: other 166 % of control
inactive: dose: 16.75 mg/kg/injection, schedule: Q04DX003 (ip), vehicle: water 116 % of control | dose: 75.0 mg/kg/injection, schedule: Q04DX003 (ip), vehicle: water 111 % of control | dose: 100.0 mg/kg/injection, schedule: Q04DX003 (ip), vehicle: other 102 % of control | dose: 100.0 mg/kg/injection, schedule: Q04DX003 (ip), vehicle: water 94 % of control

CCOc1ccc(OCC)c(NC(=O)Nc2ccccc2OC)c1
inactive: [13] 96 % of control | [14] 96 % of control | [15] 96 % of control

C[n+]1ccn(CC(=O)c2ccccc2)c1
inactive: dose: 25.0 mg/kg/injection, schedule: Q01DX009 (ip), vehicle: saline 105 % of control | dose: 50.0 mg/kg/injection, schedule: Q01DX009 (ip), vehicle: saline 103 % of control | dose: 100.0 mg/kg/injection, schedule: Q01DX009 (ip), vehicle: saline 105 % of control | [6] 102 % of control

CCOC(=O)C12CCCCC1=CC1(CC2)SCCS1 (stereo unspecified)
inactive: dose: 100.0 mg/kg/injection, schedule: Q04DX003 (ip), vehicle: acetone 93 % of control | dose: 200.0 mg/kg/injection, schedule: Q04DX003 (ip), vehicle: acetone 91 % of control | dose: 400.0 mg/kg/injection, schedule: Q04DX003 (ip), vehicle: acetone 86 % of control

CC(=NCC(=O)O)c1ccccc1
inactive: [4] 93 % of control | [5] 100 % of control | [6] 100 % of control

ClCCN(CCCl)c1ccc(CCN2CCCCC2)cc1
inactive: dose: 3.12 mg/kg/injection, schedule: Q01DX009 (ip), vehicle: Klucel (hydroxypropylcellulose) (HPC) 106 % of control | dose: 6.25 mg/kg/injection, schedule: Q01DX009 (ip), vehicle: Klucel (hydroxypropylcellulose) (HPC) 106 % of control | dose: 12.5 mg/kg/injection, schedule: Q01DX009 (ip), vehicle: Klucel (hydroxypropylcellulose) (HPC) 121 % of control and 108 % of control | dose: 25.0 mg/kg/injection, schedule: Q01DX009 (ip), vehicle: Klucel (hydroxypropylcellulose) (HPC) 118 % of control

O=C1OC(c2ccc([N+](=O)[O-])cc2)=N/C1=C\c1ccc2c(c1)OCO2
inactive: [16] 95 % of control | [17] 98 % of control | [13] 91 % of control

O=C(CCl)NC12Nc3ccccc3C1(Cc1ccccc1)CN(C1CCCCC1)C2=O (stereo unspecified)
inactive: [17] 95 % of control | [1] 100 % of control | [2] 86 % of control | [14] 89 % of control

CSc1ncc(C(=O)O)c(SC(C)C)n1
inactive: dose: 50.0 mg/kg/injection, schedule: Q04DX003 (ip), vehicle: saline with Tween-80 91 % of control | [1] 102 % of control | [7] 93 % of control | [2] 92 % of control | [8] 87 % of control

CC(C)(C)C(Br)C(=O)O (stereo unspecified)
inactive: dose: 75.0 mg/kg/injection, schedule: Q01DX001 (ip), vehicle: saline with Tween-80 97 % of control | dose: 150.0 mg/kg/injection, schedule: Q01DX001 (ip), vehicle: saline with Tween-80 97 % of control

COC(=O)c1ccccc1Nc1c2ccc(Cl)cc2nc2c1c(C)nn2C
inactive: [10] 96 % of control | [7] 101 % of control | [11] 100 % of control | [8] 95 % of control | [12] 97 % of control | [9] 106 % of control

O=C(CC(=O)C(F)(F)F)C(F)(F)F.[C-]#[O+].[C-]#[O+].[Mn].c1ccc([PH+](c2ccccc2)c2ccccc2)cc1.c1ccc([PH+](c2ccccc2)c2ccccc2)cc1
inactive: dose: 12.5 mg/kg/injection, schedule: Q04DX002 (ip), vehicle: saline with Tween-80 91 % of control | [16] 91 % of control | [17] 95 % of control

— PubChem BioAssay AID256 (DTP/NCI, 2004)
